Experimental data reported in PMC9046217, “L-tyrosine-bound ThiH structure reveals C–C bond break differences within radical SAM aromatic amino acid lyases” (Nature Communications, 2022).

Key:
[1] = target: T1, TcThiH (2-iminoacetate synthase ThiH) (Thermosinus carboxydivorans, UniProt A1HPQ5); assay: X-ray crystal structure, […] Å; assay type: binding; conditions: with L-tyrosine, 5'-deoxyadenosine; bound to the [4Fe-4S] cluster; pH 6.5, anaerobic; SAM cleavage product mimic
T1 construct: gene TcarDRAFT_1903; full length, N-terminal Strep-tag kept (MWSHPQFEKA-SGTFYDVIEDYRHFDF...YKDWQAL, 377 residues printed; printed DNA encodes a His6 tag instead); E. coli BL21(DE3) with isc operon and metK; [4Fe-4S] reconstituted; monomer
T1 sequence (A1HPQ5 entry or part of it): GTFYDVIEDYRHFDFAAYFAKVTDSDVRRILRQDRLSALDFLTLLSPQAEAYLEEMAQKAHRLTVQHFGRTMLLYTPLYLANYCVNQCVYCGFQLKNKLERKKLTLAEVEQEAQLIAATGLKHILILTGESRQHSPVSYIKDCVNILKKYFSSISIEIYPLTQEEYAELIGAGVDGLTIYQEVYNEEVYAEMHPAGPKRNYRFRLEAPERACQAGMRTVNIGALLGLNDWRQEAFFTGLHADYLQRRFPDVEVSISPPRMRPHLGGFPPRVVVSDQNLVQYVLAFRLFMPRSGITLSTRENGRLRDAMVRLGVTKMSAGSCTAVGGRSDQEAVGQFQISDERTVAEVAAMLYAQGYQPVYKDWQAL

[2] = target: 2-iminoacetate synthase ThiH from Thermosinus carboxydivorans (Thermosinus carboxydivorans); assay: SEC; preparative gel filtration, HiLoad 16/600 S200 prep-grade column, buffer B (50 mM Tris pH 8, 100 mM NaCl), anaerobic

## CSCC[C@H](N)C(=O)O [L-methionine]
[1]
  X-ray crystal structure, 1.27 Å: L-methionine bound to the radical SAM [Fe4S4]-cluster and L-tyrosine (Fig. 2b)

## 2-iminoacetate synthase ThiH from Thermosinus carboxydivorans (enzyme)
[2]
  stoichiometry N: 2
